This test deals with HCV replicon cells Huh 9B. The experiment in a line: HCV replicon assay (luciferase) in Huh 9B replicon cells. It counts as cell-based. The note with it: Hepatitis C virus; concentration reducing replicon level (luciferase activity) by 50% vs untreated cell control; 72 h incubation. How it is done:
HCV replicon cells Huh 9B (ReBlikon), containing the firefly luciferase—ubiquitin—neomycin phosphotransferase fusion protein and EMCV-IRES driven HCV polyprotein with cell culture adaptive mutations.
Cells were cultured at 37° C. in a 5% CO2 environment and split twice a week on seeding at 2×10E6 cells/flask on day 1 and 1×10E6 3 days later. Some 0.25 mg/ml G418 was added to the culture medium (125 ul per 25 ml) but not the assay medium.
The culture medium consisted of DMEM with […] glucose and glutamax (Gibco 61965-026) supplemented with 1× non-essential amino acids, penicillin (100 IU/ml)/streptomycin (100 μg/ml), FCS (10%, 50 ml) and 1 mg/ml G418 (Invitrogen cat no 10131-027) & 10% foetal calf serum.
A flask of cells was trypsinised and a cell count carried out. Cells were diluted to 100,000 cells/ml and 100 μl of this used to seed one opaque white 96-well plate (for the replicon assay) and one flat-bottomed clear plate (for the tox assay) for every seven compounds to be tested for IC50. Wells G12 and H12 were left empty in the clear plate as the blank. Plates were then incubated at 37° C. in a 5% CO2 environment for 24 h.
On the following day compound dilutions are made up in medium at twice their desired final concentration in a clear round bottomed plate. All dilutions have a final DMSO concentration of 1%.
Once the dilution plate had been made up, controls and compounds were transferred to the assay plate (containing the cells) at 100 μl/well in duplicate plates.
Exception: in the white (replicon) plate, no compound was added to wells A1 and A2 and 100 μl of 1% DMSO was added to these instead. In the clear (Tox) plate, wells E12 & F12 only contained the DMSO control. Plates were then incubated at 37° C. with 5% CO2 for 72 h.
At the end of the incubation time, the cells in the white plate were harvested by washing with 200 μl/well of warm (37° C.) PBS and lysed with 20 μl cell culture lysis buffer (Promega). After 5 min incubation @ RT, luciferin solution was added to the luciferase assay buffer (LARB at 200 μl per 10 ml LARB. The M injector of the microplate luminometer (Lmax, Molecular Devices) was primed with […] injections. Plate were inserted into the luminometer and 100 μl luciferase assay reagent was added by the injector on the luminometer. The signal was measured using a 1 second delay followed by a 4 second measurement programme. The IC50, the concentration of the drug required for reducing the replicon level by 50% in relation to the untreated cell control value, can be calculated from the plot of the percentage reduction of the luciferase activity vs. drug concentration.

With `c1cc(-c2ccc3ncnc(Nc4ccc(N5CCOCC5)cc4)c3c2)cc(-n2cccn2)c1` [Example 23, (4-Morpholin-4-yl-phenyl)-[6-(3-pyrazol-1-yl-phenyl)-quinazolin-4-yl]-amine], the IC50 is below 1 µM.
Take `Cc1csc(-c2ccc3ncnc(Nc4ccc(N5CCOCC5)cc4)c3c2)c1` [Example 20, [6-(4-Methyl-thiophen-2-yl)-quinazolin-4-yl]-(4-morpholin-4-yl-phenyl)-amine]: the IC50 was below 5 µM.
Next, `COc1cccc(CNC(=O)c2ccc3ncnc(Nc4ccc(N5CCOCC5)cc4)c3c2)c1` [Example 28, 4-(4-Morpholin-4-yl-phenylamino)-quinazoline-6-carboxylic acid 3-methoxy-benzylamide]: below 5 µM; `c1csc(-c2ccc3ncnc(Nc4ccc(N5CCOCC5)cc4)c3c2)c1` [Example 15, (4-Morpholin-4-yl-phenyl)-(6-thiophen-2-yl-quinazolin-4-yl)-amine]: below 1 µM; `c1csc(-c2ccc3ncnc(Nc4ccc(N5CCOCC5)cc4)c3c2)n1` [Example 18, (4-Morpholin-4-yl-phenyl)-(6-thiazol-2-yl-quinazolin-4-yl)-amine]: below 1 µM.
Next, `CC(C)N(c1ccc(N2CCOCC2)cc1)c1ncnc2ccc(-c3cccs3)cc12` [Example 48, Isopropyl-(4-morpholin-4-yl-phenyl)-(6-thiophen-2-yl-quinazolin-4-yl)-amine]: below 5 µM; `CS(=O)(=O)c1ccc(-c2ccc3ncnc(Nc4ccc(N5CCOCC5)cc4)c3c2)cc1` [Example 22, [6-(4-Methanesulfonyl-phenyl)-quinazolin-4-yl]-(4-morpholin-4-yl-phenyl)-amine]: below 1 µM; `O=C(Nc1ccc(-c2ccc3ncnc(Nc4ccc(N5CCOCC5)cc4)c3c2)cc1)OCc1ccccc1` [Example 34, {4-[4-(4-Morpholin-4-yl-phenylamino)-quinazolin-6-yl]-phenyl}-carbamic acid benzyl ester]: below 1 µM.
Next, `CN(C)Cc1ccc(-c2ccc3ncnc(Nc4ccc(N5CCOCC5)cc4)c3c2)o1` [Example 13, [6-(5-Dimethylaminomethyl-furan-2-yl)-quinazolin-4-yl]-(4-morpholin-4-yl-phenyl)-amine]: below 5 µM; `FC(F)(F)c1cc(N2CCOCC2)ccc1Nc1ncnc2ccc(-c3cccs3)cc12` [Example 40, (4-Morpholin-4-yl-2-trifluoromethyl-phenyl)-(6-thiophen-2-yl-quinazolin-4-yl)-amine]: below 1 µM.
In turn, `Cc1cc(Nc2ncnc3ccc(-c4cccs4)cc23)ccc1N1CCOCC1` [Example 44, (3-Methyl-4-morpholin-4-yl-phenyl)-(6-thiophen-2-yl-quinazolin-4-yl)-amine] came in with an IC50 below 1 µM.
Next, `c1ccc(COc2ccccc2-c2ccc3ncnc(Nc4ccc(N5CCOCC5)cc4)c3c2)cc1` [Example 50, [6-(2-Benzyloxy-phenyl)-quinazolin-4-yl]-(4-morpholin-4-yl-phenyl)-amine]: below 5 µM; `CNCc1ccc(-c2ccc3ncnc(Nc4ccc(N5CCOCC5)cc4)c3c2)o1` [Example 14, [6-(5-Methylaminomethyl-furan-2-yl)-quinazolin-4-yl]-(4-morpholin4-yl-phenyl)-amine]: below 25 µM.
Next, `Cc1ccccc1-c1ccc2ncnc(Nc3ccc(N4CCOCC4)cc3)c2c1` [Example 17, (4-Morpholin-4-yl-phenyl)-(6-o-tolyl-quinazolin-4-yl)-amine]: below 5 µM; `N#Cc1ccc(-c2ccc3ncnc(Nc4ccc(N5CCOCC5)cc4)c3c2)cc1` [Example 24, 4-[4-(4-Morpholin-4-yl-phenylamino)-quinazolin-6-yl]-benzonitrile]: below 5 µM; `COc1ncc(-c2ccc3ncnc(Nc4ccc(N5CCOCC5)cc4)c3c2)cn1` [Example 19, [6-(2-Methoxy-pyrimidin-5-yl)-quinazolin-4-yl]-(4-morpholin-4-yl-phenyl)-amine]: below 1 µM.
In the case of `O=C(O)c1ccc(-c2ccc3ncnc(Nc4ccc(N5CCOCC5)cc4)c3c2)s1` [Example 21, 5-[4-(4-Morpholin-4-yl-phenylamino)-quinazolin-6-yl]-thiophene-2-carboxylic acid] it was below 25 µM.
Regarding `CCN(c1ccc(N2CCOCC2)cc1)c1ncnc2ccc(-c3cccs3)cc12` [Example 45, Ethyl-(4-morpholin-4-yl-phenyl)-(6-thiophen-2-yl-quinazolin-4-yl)-amine], the IC50 is below 5 µM.
The compound `CCNC(=O)c1ccc2ncnc(Nc3ccc(N4CCOCC4)cc3)c2c1` [Example 32, 4-(4-Morpholin-4-yl-phenylamino)-quinazoline-6-carboxylic acid ethylamide] registered an IC50 below 5 µM.
Next, `c1nc(Nc2ccc(N3CCOCC3)cc2)c2cc(-c3ccc(C4OCCO4)o3)ccc2n1` [Example 6, [6-(5-[1,3]Dioxolan-2-yl-furan-2-yl)quinazolin-4-yl]-(4-morpholin-4-yl-phenyl)-amine]: below 5 µM; `CC(C)(C)OC(=O)Nc1ccc(-c2ccc3ncnc(Nc4ccc(N5CCOCC5)cc4)c3c2)cc1` [Example 36, {4-[4-(4-Morpholin-4-yl-phenylamino)-quinazolin-6-yl]-phenyl}-carbamic acid tert-butyl ester]: below 1 µM.
Next, `COc1cc(Nc2ncnc3ccc(-c4cccs4)cc23)ccc1N1CCOCC1` [Example 42, (3-Methoxy-4-morpholin-4-yl-phenyl)-(6-thiophen-2-yl-quinazolin-4-yl)-amine]: below 1 µM.
Next, `CN(C)C(=O)c1ccc2ncnc(Nc3ccc(N4CCOCC4)cc3)c2c1` [Example 31, 4-(4-Morpholin-4-yl-phenylamino)-quinazoline-6-carboxylic acid dimethylamide]: below 5 µM; `CC(C)CCN(c1ccc(N2CCOCC2)cc1)c1ncnc2ccc(I)cc12` [Example 47, (6-Iodo-quinazolin-4-yl)-(3-methyl-butyl)-(4-morpholin-4-yl-phenyl)-amine]: below 5 µM.
As to `FC(F)(F)c1cc(N2CCOCC2)ccc1Nc1ncnc2ccc(I)cc12` [Example 39, (6-Iodo-quinazolin-4-yl)-(4-morpholin-4-yl-2-trifluoromethyl-phenyl)-amine], the IC50 was below 1 µM.
The compound `O=Cc1ccc(-c2ccc3ncnc(Nc4ccc(N5CCOCC5)cc4)c3c2)o1` [Example 7, 5-[4-(4-Morpholin 4-yl-phenylamino)-quinazolin-6-yl]-furan-2-carbaldehyde] registered an IC50 below 1 µM.
Next, `CCOC(=O)c1cccc(NC(=O)c2ccc3ncnc(Nc4ccc(N5CCOCC5)cc4)c3c2)c1` [Example 27, 3-{[4-(4-Morpholin-4-yl-phenylamino)-quinazoline-6-carbonyl]-amino}-benzoic acid ethyl ester]: below 5 µM; `Ic1ccc2ncnc(Nc3ccc(N4CCOCC4)cc3)c2c1` [Example 2, (6-Iodo-quinazolin-4-yl)-(4-morpholin-4-yl-phenyl)-amine]: below 1 µM; `CN1CCN(Cc2ccc(-c3ccc4ncnc(Nc5ccc(N6CCOCC6)cc5)c4c3)o2)CC1` [Example 11, {6-[5-(4-Methyl-piperazin-1-ylmethyl)-furan-2-yl]-quinazolin-4-yl}-(4-morpholin-4-yl-phenyl)-amine]: below 5 µM.

Source of the values: US20080311076A1, “Morpholinylanilinoquinazoline Derivatives For Use As Antiviral Agents” (ARROW THERAPEUTICS LIMITED, priority 2004, published 2008).
